Tests used:
[1] = Laboratory treatment of corn ethanol syrup with bisulfite in a Parr 4560 reactor; DON measured by NEOGEN VERATOX for DON 2/3 kit
Protocol: Encouraged by these initial test results, further testing was performed utilizing a design of experiments to determine an equation modeling the effect of time, temperature, and SBS in the treatment of syrup. Syrup from a corn ethanol biorefinery was obtained and processed in the laboratory. All thermal treatments were performed utilizing a Parr 4560 reactor and a combined total of 70 g of syrup and SBS per reaction. Reaction conditions were from 85° C. to 115° C.; for 2 to 6 hours; and 0 to 0.05 g sodium bisulfite per dry gram syrup. The results from this study indicated a correlation between the SBS loading and the reduction in syrup DON. The model predicts a greater than 85% reduction in syrup DON is likely if treatment in a commercial process syrup tank is utilized. It was calculated that at a plant that is currently producing DDGS with 14.5 ppm DON with a 95% reduction in syrup DON would produce DDGS with 4.6 ppm DON.
(§1) Syrup from a corn ethanol biorefinery was obtained and processed in the laboratory. Treatment was performed utilizing a Parr 4560 reactor and a combined total of 70 g of syrup and SBS per reaction. The reaction condition was carried out at 50° C. for 120 minutes and varying amounts of sodium bisulfite per dry gram syrup. The DON was measured by NEOGEN™ VERATOX™ for DON 2/3 kit.
as §1, with “85°” for “50°”, “30” for “120”, “to 180 minutes using 0.048 grams” for “and varying amounts of”
Syrup from a corn ethanol biorefinery was obtained and processed in the laboratory using a Parr 4560 reactor and combined with either 0.048 grams of SBS or ammonium bisulfite per dry gram of syrup. Ammonium bisulfite was a 65% aqueous solution of 95% ammonium bisulfite and 5% potassium bisulfite. The doses of the two reagents used were molar equivalent bisulfite doses. The reaction condition was carried out at 85° C. for 30, 60 and 90 minutes.

[2] = DON analysis of DDGS sources and mixed diets of the pig trial; settings: treated vs untreated DDGS
Description: A treated mycotoxin in which the DON levels in DON-contaminated DDGS were reduced by the method described in Example 5 (1.5 gallons per minute of a 38% aqueous solution of SBS was supplied continuously into the feed line of the syrup tank) and samples of dried DDGS were collected, analyzed and tested for its effect on pig growth.
A total of 247 growing pigs (55.3±4.6 lb.) were housed at a wean-to-finish facility, randomly allotted to 18 pens (13-14 pigs/pen) containing one 3-hole feeder 2 free-access nipple drinkers, and assigned to one of 3 experimental diets: control, DONDDGS, and treated-DDGS. All experimental diets were corn/soybean meal based containing 30% DDGS (low DON, DON contaminated, and treated DON DDGS, respectively; Table 1).
All diets met or exceeded nutrient requirements for growing pigs based on NRC (2012) and provided ad libitum. Experimental diets were fed for 21 days. Samples of the DDGS and corn used in the diets were analyzed for DON. Samples of the mixed diets were collected at day 0 and 21 and analyzed for proximate analysis and DON.

## O=S([O-])O.[Na+] [SBS, sodium bisulfite]
[1]; 50° C., 120 minutes, varying amounts of sodium bisulfite per dry gram syrup
  DON in the treated syrup as SBS dose increased (FIG. 4): reduced
[1]; 85° C., 30 minutes dwell time, 0.048 grams sodium bisulfite per dry gram syrup
  DON in the treated syrup (FIG. 5): less than 1 ppm
[1]; design-of-experiments model (time, temperature, SBS), treatment in a commercial process syrup tank
  reduction in syrup DON predicted by the model: greater than 85%
[1]; syrup treated with SBS at process temperatures for extended time periods
  DON reduction in the syrup stream: greater than 85%
[2]
  reduction of DON content in DON-DDGS: 37%
